The target in assay [1] is T1, PDZ protein (GST-PDZ fusion) (Homo sapiens, UniProt O95049).
T1 construct: made in house; host or cells: E. coli (DH5alpha, BL21 or JM109)
T1 sequence (O95049 1-919): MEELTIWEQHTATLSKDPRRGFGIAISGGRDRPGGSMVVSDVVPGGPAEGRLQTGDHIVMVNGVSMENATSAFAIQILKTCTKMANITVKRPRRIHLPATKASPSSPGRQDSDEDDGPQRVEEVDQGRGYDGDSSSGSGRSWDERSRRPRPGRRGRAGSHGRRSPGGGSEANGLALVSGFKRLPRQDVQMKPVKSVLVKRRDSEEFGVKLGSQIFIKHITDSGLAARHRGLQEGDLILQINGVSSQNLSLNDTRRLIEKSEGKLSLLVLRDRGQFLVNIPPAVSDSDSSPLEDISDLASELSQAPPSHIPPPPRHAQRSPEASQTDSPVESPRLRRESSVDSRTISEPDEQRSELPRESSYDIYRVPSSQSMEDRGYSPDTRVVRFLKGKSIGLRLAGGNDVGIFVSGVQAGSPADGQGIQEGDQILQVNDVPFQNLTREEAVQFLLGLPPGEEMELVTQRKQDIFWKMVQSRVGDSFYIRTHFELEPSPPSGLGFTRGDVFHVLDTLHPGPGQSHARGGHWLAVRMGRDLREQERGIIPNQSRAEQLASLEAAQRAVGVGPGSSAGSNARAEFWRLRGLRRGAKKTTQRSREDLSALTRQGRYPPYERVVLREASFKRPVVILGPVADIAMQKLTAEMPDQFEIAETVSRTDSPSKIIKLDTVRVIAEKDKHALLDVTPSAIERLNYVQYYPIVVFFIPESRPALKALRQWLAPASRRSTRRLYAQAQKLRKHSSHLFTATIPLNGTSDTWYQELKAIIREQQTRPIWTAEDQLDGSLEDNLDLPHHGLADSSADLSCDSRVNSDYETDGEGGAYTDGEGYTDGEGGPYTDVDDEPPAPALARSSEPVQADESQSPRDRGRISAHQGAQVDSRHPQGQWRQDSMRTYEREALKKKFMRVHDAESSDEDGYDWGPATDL
The assay can be described thus: G' assay (10 uM PL peptide), results of TABLE 7 and TABLE 12. In kind it is binding. The gist of the method: (§1)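 Biotinylated PL peptides at 10 uM (vs 20 uM in G^0 assay) bound to GST-PDZ fusions; PDZ protein at 5 ug/ml unless another concentration listed. Bound peptide read as A450 nm, classified 0–5 (0 = A450 0; 5 = A450 >4 repeated).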

Assay [2] concerns the target T2, PDZ protein (GST-PDZ fusion) (Homo sapiens, UniProt Q9UPQ7).
T2 construct: made in house; host or cells: E. coli (DH5alpha, BL21 or JM109)
T2 sequence (Q9UPQ7 1-1066): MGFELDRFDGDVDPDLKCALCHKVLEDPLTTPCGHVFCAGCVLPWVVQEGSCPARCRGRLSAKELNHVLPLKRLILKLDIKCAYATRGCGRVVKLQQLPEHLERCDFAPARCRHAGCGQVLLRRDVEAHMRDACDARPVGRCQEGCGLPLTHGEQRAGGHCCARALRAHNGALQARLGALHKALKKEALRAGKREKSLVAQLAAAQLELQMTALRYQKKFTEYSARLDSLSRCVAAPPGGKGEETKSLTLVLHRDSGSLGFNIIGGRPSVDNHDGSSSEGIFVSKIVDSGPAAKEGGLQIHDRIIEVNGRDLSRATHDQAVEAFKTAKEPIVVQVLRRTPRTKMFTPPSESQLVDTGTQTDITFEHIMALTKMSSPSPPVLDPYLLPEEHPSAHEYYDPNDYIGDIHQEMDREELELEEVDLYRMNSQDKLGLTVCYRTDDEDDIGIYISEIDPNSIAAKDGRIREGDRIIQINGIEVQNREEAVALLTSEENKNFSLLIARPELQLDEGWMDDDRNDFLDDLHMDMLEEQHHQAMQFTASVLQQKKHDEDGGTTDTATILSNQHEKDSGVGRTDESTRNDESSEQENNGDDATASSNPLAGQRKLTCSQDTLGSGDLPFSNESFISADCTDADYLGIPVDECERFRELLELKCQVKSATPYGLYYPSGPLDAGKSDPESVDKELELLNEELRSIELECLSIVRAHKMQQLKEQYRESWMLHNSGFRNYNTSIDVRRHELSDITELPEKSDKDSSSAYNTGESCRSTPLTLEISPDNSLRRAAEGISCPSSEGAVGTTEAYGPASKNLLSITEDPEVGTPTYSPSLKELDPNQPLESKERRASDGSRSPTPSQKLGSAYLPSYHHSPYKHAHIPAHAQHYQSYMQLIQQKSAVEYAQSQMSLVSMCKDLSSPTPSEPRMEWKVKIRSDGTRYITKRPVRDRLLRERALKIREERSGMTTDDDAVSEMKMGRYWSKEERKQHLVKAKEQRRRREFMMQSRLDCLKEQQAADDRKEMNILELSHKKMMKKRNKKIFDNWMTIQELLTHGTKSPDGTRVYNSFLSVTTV
The description is as above. It counts as binding. The conditions noted are these: PDZ KIAA1095, PDZ Domain 1. The method in brief:
as §1

Ends that are not written are not given here. Peptide text beside a SMILES is read from it. * marks the point of attachment. Biotin = O=C1N[C@H]2[C@H](CS[C@H]2CCCCC(=O)*)N1

Consider `CC[C@H](C)[C@H](NC(=O)[C@H](Cc1ccc(O)cc1)NC(=O)[C@@H](NC(=O)[C@@H]1CCCN1C(=O)[C@H](CCC(N)=O)NC(=O)[C@H](CCC(=O)O)NC(=O)[C@H](CCC(N)=O)NC(=O)[C@H](C)NC(=O)[C@@H](NC(=O)[C@H](CC(C)C)NC(=O)[C@H](CC(C)C)NC(=O)[C@H](CCCNC(=N)N)NC(=O)[C@H](Cc1ccc(O)cc1)NC(=O)[C@H](CCSC)NC(=O)[C@H](C)NC(=O)[C@H](C)NC(=O)[C@@H]1CCCN1C(=O)[C@H](CCSC)NC(=O)[C@@H](NC(=O)[C@H](CCCCN)NC(=O)CCCC[C@@H]1SC[C@@H]2NC(=O)N[C@@H]21)[C@@H](C)O)[C@@H](C)O)C(C)C)C(=O)O` [MINT-1] (Biotin-KTMPAAMYRLLTAQEQPVYI-OH; C-terminus assumed), for which the Classification in assay [1] (PDZ ZO-3, PDZ Domain 1) is 2 (A450 nm 1-2); in assay [1] (PDZ ZO-3, PDZ Domain 3), 1 (A450 nm 0-1).
For the molecule TQGFPGPATWRRISSLESEV, the Classification in assay [2] is given as 1 (A450 nm 0-1).
With `CSCC[C@H](NC(=O)[C@H](C)NC(=O)[C@H](CCCNC(=N)N)NC(=O)CNC(=O)[C@@H](NC(=O)[C@H](Cc1c[nH]c2ccccc12)NC(=O)[C@H](CCCNC(=N)N)NC(=O)CNC(=O)CCCC[C@@H]1SC[C@@H]2NC(=O)N[C@@H]21)[C@@H](C)O)C(=O)N[C@@H](CO)C(=O)N[C@@H](C)C(=O)N[C@@H](Cc1c[nH]c2ccccc12)C(=O)N[C@@H](CCCCN)C(=O)N1CCC[C@H]1C(=O)N[C@H](C(=O)N[C@@H](CCCNC(=N)N)C(=O)N[C@@H](CCCNC(=N)N)C(=O)N[C@@H](CCC(=O)O)C(=O)N[C@H](C(=O)N[C@@H](CCC(=O)O)C(=O)N[C@H](C(=O)O)C(C)C)[C@@H](C)O)[C@@H](C)O` [HPV E6 #35 (modified)] (Biotin-GRWTGRAMSAWKPTRRETEV-OH; C-terminus assumed), the Classification in assay [2] is 4 (A450 nm 3-4).
With “PYSELNYETSHYPASPDSWV (Biotin-PYSELNYETSHYPASPDSWV) [catenin - delta 2]”, the Classification in assay [1] (PDZ ZO-3, PDZ Domain 3) is listed as 3 (A450 nm 2-3).
Regarding `CC(C)C[C@H](NC(=O)[C@H](C)NC(=O)[C@@H](NC(=O)[C@H](CCC(=O)O)NC(=O)[C@H](CCCNC(=N)N)NC(=O)[C@H](CCCNC(=N)N)NC(=O)CNC(=O)[C@H](CCC(N)=O)NC(=O)[C@H](CC(C)C)NC(=O)[C@H](CCCNC(=N)N)NC(=O)CNC(=O)CNC(=O)[C@H](CCCNC(=N)N)NC(=O)[C@H](C)NC(=O)[C@H](CO)NC(=O)[C@H](CCCNC(=N)N)NC(=O)CNC(=O)CNC(=O)[C@H](C)NC(=O)[C@H](C)NC(=O)CCCC[C@@H]1SC[C@@H]2NC(=O)N[C@@H]21)[C@@H](C)O)C(=O)O` [HPV E6 33 (modified)] (Biotin-AAGGRSARGGRLQGRRETAL-OH; C-terminus assumed), the Classification in assay [2] is on record as 5 (A450 nm of 4 more than 2× repeated).
With “KTMPAAMFRLLTGQETPLYI (Biotin-KTMPAAMFRLLTGQETPLYI) [MINT-2]”, the Classification in assay [1] (PDZ ZO-3, PDZ Domain 3) was 1 (A450 nm 0-1).
With “A2AA_HUMAN (modified) (Biotin-HDFRRAFKKILARGDRKRIV; not fully specified)”, in assay [1] (PDZ ZO-3, PDZ Domain 2), the Classification is 3 (A450 nm 2-3).
For the molecule `CC[C@H](C)[C@H](NC(=O)CNC(=O)[C@H](CO)NC(=O)[C@H](Cc1ccccc1)NC(=O)[C@@H](NC(=O)[C@H](CS)NC(=O)CNC(=O)CNC(=O)[C@H](C)NC(=O)[C@@H]1CCCN1C(=O)[C@@H](NC(=O)[C@@H]1CCCN1C(=O)CCCC[C@@H]1SC[C@@H]2NC(=O)N[C@@H]21)[C@@H](C)CC)[C@@H](C)O)C(=O)N[C@@H](Cc1ccccc1)C(=O)N1CCC[C@H]1C(=O)N[C@H](C(=O)N[C@@H](CC(C)C)C(=O)N[C@H](C(=O)N[C@@H](CO)C(=O)N1CCC[C@H]1C(=O)N[C@@H](CC(C)C)C(=O)O)[C@@H](C)O)[C@@H](C)O` [KIA 1481] (Biotin-PIPAGGCTFSGIFPTLTSPL-OH; C-terminus assumed), the Classification in assay [2] was 1 (A450 nm 0-1).
Turning to “ELLQFCRTPNPALKNGQYWV (Biotin-ELLQFCRTPNPALKNGQYWV)”, the Classification in assay [1] (PDZ ZO-3, PDZ Domain 1) is 2 (A450 nm 1-2); in assay [1] (PDZ ZO-3, PDZ Domain 3) it was 5 (A450 nm of 4 more than 2× repeated).
Take `CC(C)C[C@H](NC(=O)[C@H](CCCNC(=N)N)NC(=O)CNC(=O)CNC(=O)[C@H](CCCNC(=N)N)NC(=O)[C@H](C)NC(=O)[C@@H]1CCCN1C(=O)[C@H](CCCNC(=N)N)NC(=O)CNC(=O)CNC(=O)[C@@H](NC(=O)[C@H](C)NC(=O)CCCC[C@@H]1SC[C@@H]2NC(=O)N[C@@H]21)C(C)C)C(=O)N[C@@H](CCC(N)=O)C(=O)NCC(=O)N[C@@H](CCCNC(=N)N)C(=O)N[C@@H](CCCNC(=N)N)C(=O)N[C@@H](CCC(N)=O)C(=O)N[C@H](C(=O)N[C@@H](CCC(N)=O)C(=O)N[C@H](C(=O)O)C(C)C)[C@@H](C)O` [HPV E6 58 (modified)] (Biotin-AVGGRPARGGRLQGRRQTQV-OH; C-terminus assumed): the Classification in assay [2] is given as 1 (A450 nm 0-1).

These data come from US20050282743A1, “Molecular interactions in cells” (Arbor Vita Corporation, priority 2001, published 2005).
